Patent US12318373B2, “Methods of treating gastrointestinal stromal tumors” (Deciphera Pharmaceuticals, LLC, priority 2019, dated 2025)

How the values were obtained:
[1] = tested on: patients with advanced GIST; assay: Example 2/6: safety, treatment-emergent adverse events; format: in vivo, human
Description: (§1) This study was a randomized (2:1), double-blind, placebo-controlled, international, multicenter study to evaluate the safety, tolerability, and efficacy of ripretinib compared to placebo in 129 patients with advanced GIST whose previous therapies have included at least imatinib, sunitinib, and regorafenib. Patients were randomized 2:1 to either 150 mg of ripretinib or placebo once daily. The primary efficacy endpoint is progression-free survival (PFS) as determined by independent radiologic review using modified Response Evaluation Criteria in Solid Tumors (RECIST). Secondary endpoints as determined by independent radiologic review using modified RECIST include Objective Response Rate (ORR), Time to Tumor Progression (TTP) and Overall Survival (OS).
Grade 3 or 4 treatment-emergent adverse events (TEAEs) occurred in 42 (49%) patients on the ripretinib arm compared to 19 (44%) on the placebo arm. Grade 3 or 4 TEAEs>5% of patients in the ripretinib arm were anemia (9%; n=8), abdominal pain (7%; n=6) and hypertension (7%; n=6). Grade 3 or 4 TEAEs>5% of patients in the placebo arm were anemia (14%; n=6). Table 1 lists TEAEs>15% in the ripretinib arm compared to placebo.
The safety of ripretinib and the impact of alopecia and palmar-plantar erythrodysesthesia (PPES) on patient-reported outcomes (PROs) of patients treated in the study described in Example 2 herein are described. […] When stratified by alopecia and PPES, patient reported assessments of function, overall health, and overall quality of life were maintained over time.

[2] = Example 8: coadministration with proton-pump inhibitor (pantoprazole), exposure; format: in vivo
Description: The effect of a proton-pump inhibitor on the exposure of ripretinib was evaluated.

GIST = assay: Example 3: clinical study in second-line through fourth-line plus GIST, efficacy at ≥100 mg daily; format: in vivo, human; settings: for Objective Response Rate by Best Response Includes Unconfirmed: RECIST 1.1, investigator-assessed
Description: Results. Data from 178 GIST patients receiving ripretinib at doses of ≥100 mg daily are noted in Table 2. The table includes investigator-assessed objective response rate (ORR) by best response, disease control rate (DCR) and median progression free survival (mPFS), all of which were determined by Response Evaluation Criteria in Solid Tumors (RECIST) version 1.1.

[3] = Example 9: food effect (high-fat meal) on exposure; format: in vivo
Description: The effect of a high-fat breakfast on ripretinib and Compound A exposure was evaluated. A high fat meal consisted of approximately 150, 250, and 500-600 calories from protein, carbohydrate, and fat, respectively. […] Therefore, ripretinib may be taken with or without food at approximately same time each day.

advanced GIST = assay: Example 2: randomized, double-blind, placebo-controlled study, efficacy (PFS, ORR, OS); format: in vivo, human; settings: for PFS by BICR: events, % / PFS by BICR: number of events: N = 85
Description: Example 2. A Randomized, Double-blind, Placebo-controlled, International, Multicenter Study to Evaluate the Safety, Tolerability, and Efficacy of Ripretinib Compared to Placebo in Patients with Advanced GIST Whose Previous Therapies Have Included Imatinib, Sunitinib, and Regorafenib
as §1
Patients whose disease progressed during the double blind phase of the study were escalated to 150 mg BID ripretinib, continued at the 150 mg QD dose, or discontinued in an open label-phase of the study.

[4] = 150 mg dose with a high-fat meal
[5] = 150 mg once daily, BICR, modified RECIST 1.1

CCn1c(=O)c(-c2cc(NC(=O)Nc3ccccc3)c(F)cc2Br)cc2cnc(NC)cc21 [ripretinib]
Alopecia in females (females vs males) ([1]; female, human, in vivo): 56.8%
Grade 3 or 4 abdominal pain: patients, % ([1]; human, in vivo): 7%
Grade 3 or 4 abdominal pain: patients, number ([1]; human, in vivo): 6
Grade 3 or 4 anemia: patients, number ([1]; human, in vivo): 8
Grade 3 or 4 hypertension: patients, % ([1]; human, in vivo): 7%
Grade 3 or 4 hypertension: patients, number ([1]; human, in vivo): 6
Patients with a TEAE leading to dose interruption ([1]; human, in vivo): 23.5%
Patients with a TEAE leading to dose reduction ([1]; human, in vivo): 7.1%
Grade 3/4 alopecia ([1]; in vivo): no patients
Grade 3 PPES ([1]; in vivo): no patients
Overall safety and tolerability profile ([1]; in vivo): favorable overall safety and tolerability profile
Serious adverse events of alopecia or PPES ([1]; in vivo): no serious adverse events
TEAEs during the crossover period ([1]; in vivo): no safety concerns
Alopecia in males (females vs males) ([1]; male, human, in vivo): 43.2%
Patients with a TEAE leading to death ([1]; ripretinib arm): 5.9%
Effect on ripretinib exposure ([2]; 40 mg QD pantoprazole with 150 mg QD ripretinib): did not affect
Difference in plasma exposure ([2]; ripretinib coadministered with pantoprazole): No clinically significant differences
Disease Control Rate at 3 Months (GIST; Fourth-Line (n = 60)): 73%
Median Progression Free Survival (mPFS) (GIST; Fourth-Line (n = 60)): 30 weeks
Objective Response Rate by Best Response (Confirmed Only) (GIST; Fourth-Line (n = 60)): (8%)
Objective Response Rate by Best Response Includes Unconfirmed (GIST; Fourth-Line (n = 60)): 15%
Disease Control Rate at 3 Months (GIST; Second-Line (n = 37)): 81%
Median Progression Free Survival (mPFS) (GIST; Second-Line (n = 37)): 42 weeks
Objective Response Rate by Best Response (Confirmed Only) (GIST; Second-Line (n = 37)): (22%)
Objective Response Rate by Best Response Includes Unconfirmed (GIST; Second-Line (n = 37)): 30%
Disease Control Rate at 3 Months (GIST; Third-Line (n = 31)): 80%
Median Progression Free Survival (mPFS) (GIST; Third-Line (n = 31)): 40 weeks
Objective Response Rate by Best Response (Confirmed Only) (GIST; Third-Line (n = 31)): (13%)
Objective Response Rate by Best Response Includes Unconfirmed (GIST; Third-Line (n = 31)): 23%
Disease Control Rate at 3 Months (GIST; ≥Fourth-Line (n = 110)): 66%
Median Progression Free Survival (mPFS) (GIST; ≥Fourth-Line (n = 110)): 24 weeks
Objective Response Rate by Best Response (Confirmed Only) (GIST; ≥Fourth-Line (n = 110)): (7%)
Objective Response Rate by Best Response Includes Unconfirmed (GIST; ≥Fourth-Line (n = 110)): 11%
AUC0-24h higher by [3, 4]: 30%
Cmax higher by [3, 4]: 22%
Clinical significance of the food effect ([3]; based on exposure-response analysis): not considered to be clinically significant
Benefit over placebo (PFS, OS), primary Exon 11 and Exon 9 mutation (advanced GIST; 150 mg QD, FIGS. 17A, 17B): derive a benefit
OS hazard ratio (HR) vs placebo (advanced GIST; 150 mg once daily): 0.36
OS rate at 12 months (advanced GIST; 150 mg once daily): 65.4%
PFS hazard ratio (HR) compared to placebo (advanced GIST; 150 mg once daily): 0.15
PFS rate at 6 months (advanced GIST; 150 mg once daily): 51%
Patients with PD, % (advanced GIST; 150 mg once daily): 18.8%
Patients with PD, number (advanced GIST; 150 mg once daily): 16
Patients with stable disease (SD) for 12 weeks, number (advanced GIST; 150 mg once daily): 40
Reduction of risk of disease progression or death compared to placebo (advanced GIST; 150 mg once daily): 85%
Median PFS (advanced GIST; [5]): 6.3 months
Objective response rate (ORR) (advanced GIST; [5]): 9.4%
Median PFS (advanced GIST; 150 mg once daily, initial ripretinib arm): 27.6 weeks
Median OS (advanced GIST; 150 mg once daily, patients initially randomized to ripretinib): 15.1 months
PFS compared to placebo in subgroups with Exon 9, 11, 13 or 17 KIT mutations (advanced GIST; FIG. 26A-D): PFS benefit in all assessed patient subgroups
PFS by BICR: events, % (advanced GIST; double-blind cut): (60) %
PFS by BICR: number of events (advanced GIST; double-blind cut): 51
PFS by BICR: events, % (advanced GIST; open-label cut): (75) %
PFS by BICR: number of events (advanced GIST; open-label cut): 64
Median OS (advanced GIST; double-blind cut): 15 months
Median PFS by BICR (advanced GIST; double-blind cut): 6.3 months
OS hazard ratio (advanced GIST; double-blind cut): 0.36
Overall Response Rate by BICR (advanced GIST; double-blind cut): 9%
Overall Survival: deaths, % (advanced GIST; double-blind cut): (31) %
Overall Survival: number of deaths (advanced GIST; double-blind cut): 26
PFS by BICR: deaths, % (advanced GIST; double-blind cut): (6) %
PFS by BICR: deaths, number (advanced GIST; double-blind cut): 5
PFS by BICR: progressive disease, % (advanced GIST; double-blind cut): (54) %
PFS by BICR: progressive disease, number (advanced GIST; double-blind cut): 46
PFS hazard ratio (advanced GIST; double-blind cut): 0.15
Median OS (advanced GIST; open-label cut): Not Reached
Median PFS by BICR (advanced GIST; open-label cut): 6.3 months
OS hazard ratio (advanced GIST; open-label cut): 0.43
Overall Response Rate by BICR (advanced GIST; open-label cut): 12%
Overall Survival: deaths, % (advanced GIST; open-label cut): (45) %
Overall Survival: number of deaths (advanced GIST; open-label cut): 38
PFS by BICR: deaths, % (advanced GIST; open-label cut): (7) %
PFS by BICR: deaths, number (advanced GIST; open-label cut): 6
PFS by BICR: progressive disease, % (advanced GIST; open-label cut): (68) %
PFS by BICR: progressive disease, number (advanced GIST; open-label cut): 58
PFS hazard ratio (advanced GIST; open-label cut): 0.16
Median PFS (advanced GIST; patients crossed over from placebo to ripretinib): 20.0 weeks
Median OS (advanced GIST; patients who crossed over from placebo to ripretinib): 11.6 months
